“And” between values parts separate entries of the source, which are not always exact repeats. Identical values can stand only once.
Assays:
[1] = biological target: T1, Bile salt-activated lipase (Bos taurus, UniProt P30122); test: Dissociation constant (KI) for the Pancreatic cholesterol esterase-catalyzed hydrolysis of 4-nitrophenyl butyrate
T1 sequence (P30122 whole entry): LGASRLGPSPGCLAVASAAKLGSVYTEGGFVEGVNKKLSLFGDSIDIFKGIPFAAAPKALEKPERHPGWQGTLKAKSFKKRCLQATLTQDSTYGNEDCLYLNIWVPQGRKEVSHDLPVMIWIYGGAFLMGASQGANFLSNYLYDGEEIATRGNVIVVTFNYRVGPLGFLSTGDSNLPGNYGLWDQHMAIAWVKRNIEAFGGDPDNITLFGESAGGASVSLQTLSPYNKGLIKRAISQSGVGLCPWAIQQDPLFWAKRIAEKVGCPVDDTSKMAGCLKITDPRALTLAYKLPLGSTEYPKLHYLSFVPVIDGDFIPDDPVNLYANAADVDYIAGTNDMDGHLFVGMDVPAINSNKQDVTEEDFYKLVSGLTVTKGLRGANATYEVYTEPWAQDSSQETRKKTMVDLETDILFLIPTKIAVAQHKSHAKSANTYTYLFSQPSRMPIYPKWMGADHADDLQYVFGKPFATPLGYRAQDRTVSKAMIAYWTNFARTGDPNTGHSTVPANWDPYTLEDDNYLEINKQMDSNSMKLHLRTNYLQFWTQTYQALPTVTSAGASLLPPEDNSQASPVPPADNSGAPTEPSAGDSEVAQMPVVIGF

[2] = biological target: T1, Bile salt-activated lipase; test: Bimolecular rate constant (ki) for the Pancreatic cholesterol esterase-catalyzed hydrolysis of 4-nitrophenyl butyrate
[3] = biological target: T2, Bile salt-activated lipase (Bos taurus) (UniProt P30122)
T2 sequence (whole entry): T1 sequence (P30122 whole entry)
Description: Carbamylation constant (k2) for the Pancreatic cholesterol esterase-catalyzed hydrolysis of 4-nitrophenyl butyrate

Row | Structure (SMILES) | Ki [1] | Bimolecular rate constant (ki) [2] | k2 [3]
1 | CCCCNC(=O)Oc1ccc2ccccc2c1-c1c(OC(=O)CCC)ccc2ccccc12 | 20 µM and 9 µM and 10 µM | 40 10e2 M-1 s-1 and 80 10e2 M-1 s-1 and 60 10e2 M-1 s-1 | 0.0008 10e3 s-1 and 0.0006 10e3 s-1 (2×)
2 | CCCCNC(=O)Oc1ccc2ccccc2c1-c1c(OC(=O)NCCCC)ccc2ccccc12 |  |  | 0.00095 10e3 s-1 and 0.0016 10e3 s-1 and 0.0012 10e3 s-1
3 | CCCCNC(=O)Oc1ccc2ccccc2c1-c1c(O)ccc2ccccc12 | 800 nM (2×) and 1.3 µM | 12000 10e2 M-1 s-1 and 10000 10e2 M-1 s-1 and 5000 10e2 M-1 s-1 | 0.01 10e3 s-1 and 0.007 10e3 s-1 and 0.006 10e3 s-1

Source: ChEMBL document CHEMBL1128903, “Atropisomeric carbamoyl type inhibitors of pancreatic cholesterol esterase” (Bioorg Med Chem Lett, 1996)
